Assays:
[1] = system: aldosterone-infused, saline-drinking, uni-nephrectomized rats; test: Assay B: heart histology (hematoxylin&eosin), vascular inflammatory lesions and myocardial injury; type: in vivo, Male Sprague Dawley rats; conditions: eplerenone 100 mpk p.o., 0.6% KCl group, 4 weeks
Method: Assay B: In Vivo Aldosterone Infusion Model Male Sprague Dawley rats (n=39; BW=250 g) […] Uni-nephrectomy performed during implantation of mini-pumps 2. Aldosterone ([…], sc via alzet minipump) 2. […] 1. […] Sacrifice after 4 weeks. Hearts were harvested and divided by half through a transverse section at the mid-ventricles: The upper half was stored into formalin. The bottom part was snap-frozen in liquid nitrogen for biochemical analysis. Hearts were stained with hematoxylin&eosin and the collagen specific dye picro-sirius red and were analyzed for determination of interstitial collagen volume fraction and morphologic abnormalities (i.e. necrosis, vascular injury).

[2] = system: osteopontin; test: Assay B: osteopontin immunohistochemistry in the heart; type: in vivo, Male Sprague Dawley rats; conditions: aldosterone-infused rats; eplerenone 100 mpk; increased dietary potassium group
Method: Assay B: In Vivo Aldosterone Infusion Model Male Sprague Dawley rats (n=39; BW=250 g) 2. Aldosterone (0.75 mg/hr, sc via alzet minipump) 2. […] Determination of osteopontin and COX-2 was performed by quantitative RT-PCR (Taqman). Osteopontin was also identified in the heart by immunohistochemistry.

[3] = system: coronary arteries of angiotensin II/salt-treated animals; test: Assay A: heart histology (hematoxylin&eosin), vascular inflammatory lesions and myocardial injury; type: in vivo, Male Wistar rats; conditions: of ten animals per group; angiotensin II/salt; eplerenone 100 mpk; 4 weeks
From the text: Sacrifice by exanguination after 4 weeks. Blood was be collected in dry tubes for determination of serum electrolytes and in EDTA-containing tubes for measurement of aldosterone and corticosterone levels Hearts were stained with hematoxylin&eosin and have been analyzed for determination of morphologic abnormalities (i.e. necrosis, vascular injury).

[4] = system: angiotensin II infused rats; test: Assay A, angiotensin II infusion model: systolic blood pressure by tail-cuff; type: in vivo, Male Wistar rats; conditions: angiotensin II 25 ng/min sc, 1% NaCl; eplerenone 100 mpk; aldosterone in adrenalectomized rats; 4 weeks
Method: Human cardiovascular disorders are complex conditions, often initiated by vascular hypertension or a myocardial infarction (MI). In order to determine the probable effectiveness of a therapy for cardiovascular disorders, it is important to determine the potency of components in several assays. Accordingly, in Assay “A”, the efficacy of the aldosterone antagonist epeplerenone (epoxymexrenone) was determined in a hypertensive rat model with vascular inflammation, using angiotensin II infusion. In Assay “B” a study is described evaluating the efficacy of the aldosterone antagonist epeplerenone (epoxymexrenone) in a rat model using aldosterone infusion to produce hypertension with vascular inflammation. In Assay “C” a further study is described evaluating the efficacy of the aldosterone antagonist epeplerenone (epoxymexrenone) in a rat model using aldosterone infusion to produce hypertension with vascular inflammation.
Assay A: In Vivo Angiotensin II Infusion Model
Male Wistar rats (n=50, 10/group; BW=200 g)
SBP measured by tail-cuff every week

Compound: [Cl-].[K+] [dietary potassium]
- Vascular inflammatory changes / myocardial injury [1]: did not have significant effects
- Osteopontin expression in the heart (immunostaining) [2]: did not reduce osteopontin expression

Compound: angiotensin II: infused 25 ng/min sc via alzet minipump to produce hypertensive rat model with vascular inflammation (DRVYIHPF; Angiotensin-2; UniProt P01015 25-32, looked up)
- Animals with vascular inflammatory changes (lesions) in the coronary arteries [3]: Seven out of the ten
- Systolic Blood Pressure [4]: increased
